Assay results reported in patent US20030087316A1, “Diagnostic markers of liver dysfunction” (priority 2001, published 2003).
Entries after “also recorded” stand apart in the source; their conditions may differ. Non-standard residues stand in square brackets, D forms with d. No end group written: not given here. *: point of attachment. pNA = O=[N+]([O-])c1ccc(N*)cc1

Columns and labels:
C1s [1] = biological target: T1, C1s (Homo sapiens, UniProt P09871); assay: Peptidase (amidolytic) activity of purified C1s, chromogenic substrate, 96-well plate, OD 405 nm; type: biochemical; details: enzyme 10 nM, 37° C., 15 min (FIG. 7)
T1 construct: purchased Advanced Research Technologies (San Diego, Calif.)
T1 sequence (P09871 438-688 limits assumed): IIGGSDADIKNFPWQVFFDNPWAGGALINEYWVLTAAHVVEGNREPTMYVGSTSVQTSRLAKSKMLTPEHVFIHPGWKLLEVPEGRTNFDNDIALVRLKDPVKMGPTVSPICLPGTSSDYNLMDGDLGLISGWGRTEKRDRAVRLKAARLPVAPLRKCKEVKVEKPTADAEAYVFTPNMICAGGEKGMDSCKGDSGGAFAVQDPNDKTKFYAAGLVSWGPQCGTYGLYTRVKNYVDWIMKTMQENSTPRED
T1 sequence (P09871 16-437 partner limits assumed): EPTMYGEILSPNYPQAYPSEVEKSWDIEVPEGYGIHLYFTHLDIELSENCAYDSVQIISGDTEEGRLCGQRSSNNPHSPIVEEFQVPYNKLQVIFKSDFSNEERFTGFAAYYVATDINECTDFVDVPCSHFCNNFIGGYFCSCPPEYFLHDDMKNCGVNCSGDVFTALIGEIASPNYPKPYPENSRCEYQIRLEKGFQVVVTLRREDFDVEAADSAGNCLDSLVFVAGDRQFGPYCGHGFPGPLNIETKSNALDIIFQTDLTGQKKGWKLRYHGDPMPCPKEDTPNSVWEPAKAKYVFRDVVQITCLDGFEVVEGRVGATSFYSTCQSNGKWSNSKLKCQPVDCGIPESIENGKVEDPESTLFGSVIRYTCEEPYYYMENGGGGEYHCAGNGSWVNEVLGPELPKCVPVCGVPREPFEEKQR

plasmin [2] = biological target: T2, plasmin (Homo sapiens, UniProt P00747); assay: Peptidase (amidolytic) activity of purified plasmin, chromogenic substrate, OD 405 nm; type: biochemical; details: enzyme 10 nM, 37° C., 15 min (FIG. 7)
T2 construct: purchased Calbiochem-Novabiochem Corp (La Jolla, Calif.)
T2 sequence (P00747 581-810 limits assumed, species assumed): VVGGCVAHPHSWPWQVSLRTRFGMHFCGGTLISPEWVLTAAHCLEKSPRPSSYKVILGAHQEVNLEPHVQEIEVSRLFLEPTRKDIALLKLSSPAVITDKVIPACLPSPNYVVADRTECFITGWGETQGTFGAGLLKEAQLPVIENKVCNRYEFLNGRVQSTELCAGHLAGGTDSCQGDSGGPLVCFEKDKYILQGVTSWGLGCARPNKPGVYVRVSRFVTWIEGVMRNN
T2 sequence (P00747 97-580 partner limits assumed, species assumed): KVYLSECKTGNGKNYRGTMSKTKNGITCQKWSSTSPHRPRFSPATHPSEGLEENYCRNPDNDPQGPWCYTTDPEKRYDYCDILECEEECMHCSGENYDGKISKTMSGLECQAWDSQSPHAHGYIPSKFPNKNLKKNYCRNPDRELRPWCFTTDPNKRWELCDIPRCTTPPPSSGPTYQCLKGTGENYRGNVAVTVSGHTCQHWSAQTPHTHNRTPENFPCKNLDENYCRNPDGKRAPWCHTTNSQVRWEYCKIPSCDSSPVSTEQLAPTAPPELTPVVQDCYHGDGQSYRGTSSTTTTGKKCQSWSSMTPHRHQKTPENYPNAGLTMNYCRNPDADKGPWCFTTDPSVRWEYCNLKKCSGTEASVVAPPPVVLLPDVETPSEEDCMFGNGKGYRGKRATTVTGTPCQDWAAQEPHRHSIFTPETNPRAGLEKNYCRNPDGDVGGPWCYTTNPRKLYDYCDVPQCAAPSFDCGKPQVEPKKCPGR

β-Factor XIIa (β-FXIIa) = biological target: T3, β-Factor XIIa (β-FXIIa) (Homo sapiens, UniProt P00748); assay: Peptidase (amidolytic) activity of purified β-FXIIa, chromogenic substrate, OD 405 nm; type: biochemical; details: for Cleavage of the substrate by β-FXIIa, in words: enzyme 10 nM, 37° C., 15 min (FIG. 7)
T3 construct: β-Factor XIIa (β-FXIIa) was kindly provided by Dr. Mary J. Heeb; gift of Dr. Mary J. Heeb, The Scripps Research Institute
T3 sequence (P00748 373-615 limits assumed, other chains not shown): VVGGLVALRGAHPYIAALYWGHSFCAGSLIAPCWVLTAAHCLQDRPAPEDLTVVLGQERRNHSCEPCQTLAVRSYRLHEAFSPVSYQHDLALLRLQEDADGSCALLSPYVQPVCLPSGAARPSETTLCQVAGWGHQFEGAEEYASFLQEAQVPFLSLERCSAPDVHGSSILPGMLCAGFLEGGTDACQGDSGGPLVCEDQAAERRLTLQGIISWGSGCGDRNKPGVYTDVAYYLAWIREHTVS
Experimental: (§1) The peptidase activity in plasma samples or of the purified enzymes were routinely determined at 37° C. in a 96-well plate. Each well contained 0.5 mM substrate in 100 μl of Tris-buffered saline (TBS)-EDTA buffer (50 mM Tris/150 mM NaCl/10 mM EDTA, pH 7.8) and the reaction was monitored using a microplate reader (Titertek Multiscan, Labsystems, Needham Heights, Mass.).
(§2) […] EDTA plasma samples from LTR were diluted 10 or 20-fold with TBS-EDTA. The chromogenic substrate AGLTR-pNA was used for all enzymes and LTR samples except C1s where the substrate S2288 was used. Based on the initial rate of increase in OD at 405 nm, the residual free enzyme level was calculated and expressed as a percentage of total activity without inhibitor added.
(§3) Ten-fold diluted normal EDTA plasma was added to each enzyme. […] LTR samples were 10 or 20-fold diluted with TBS-EDTA. The chromogenic substrate AGLTR-pNA was used for all enzymes and LTP samples except C1s where the substrate S2288 was used. Based on the initial rate of increase in OD at 405 nm, the residual free enzyme was calculated and expressed as a percentage of total activity determined without inhibitor added.

plasma kallikrein = biological target: T4, plasma kallikrein (Homo sapiens, UniProt P03952); assay: Peptidase (amidolytic) activity of purified plasma kallikrein, chromogenic substrate, OD 405 nm; type: biochemical; details: for Cleavage of the substrate by plasma kallikrein, in words: enzyme 10 nM, 37° C., 15 min (FIG. 7)
T4 construct: The light chain of kallikrein contains the enzymatic domain; purchased Calbiochem-Novabiochem Corp (La Jolla, Calif.)
T4 sequence (P03952 391-638 limits assumed): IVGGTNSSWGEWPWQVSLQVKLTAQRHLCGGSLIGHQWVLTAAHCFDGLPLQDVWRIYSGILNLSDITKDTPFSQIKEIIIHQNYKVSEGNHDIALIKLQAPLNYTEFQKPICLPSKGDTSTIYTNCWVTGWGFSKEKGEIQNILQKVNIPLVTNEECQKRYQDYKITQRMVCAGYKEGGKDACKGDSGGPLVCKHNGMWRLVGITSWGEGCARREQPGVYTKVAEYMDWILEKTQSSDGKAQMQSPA
T4 sequence (P03952 20-390 partner limits assumed): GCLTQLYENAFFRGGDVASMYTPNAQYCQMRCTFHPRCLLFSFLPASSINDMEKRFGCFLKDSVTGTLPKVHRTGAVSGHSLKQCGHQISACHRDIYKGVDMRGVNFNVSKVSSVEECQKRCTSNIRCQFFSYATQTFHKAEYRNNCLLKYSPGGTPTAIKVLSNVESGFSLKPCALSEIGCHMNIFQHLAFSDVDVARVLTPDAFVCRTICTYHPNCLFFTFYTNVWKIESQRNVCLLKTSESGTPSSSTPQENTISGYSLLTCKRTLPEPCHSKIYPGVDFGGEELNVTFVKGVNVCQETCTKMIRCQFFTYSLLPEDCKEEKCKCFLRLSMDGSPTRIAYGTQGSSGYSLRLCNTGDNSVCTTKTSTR
Experimental: as §1, §2, §3

[3] = tested on: proteinase(s) in EDTA plasma from LTR (kallikrein-like peptidase); assay: Peptidase activity in EDTA plasma from liver transplant recipients (LTR), chromogenic substrate, OD 405 nm; type: biochemical, human; details: Sephacryl S-300 fractions of LTR plasma, 37° C. (FIG. 4)
tissue kallikrein = assay: Peptidase activity of purified tissue kallikrein on chromogenic substrates; type: biochemical; details: enzyme 10 nM, 37° C., 15 min (FIG. 7)
Experimental: as §1

trypsin [4] = assay: Peptidase (amidolytic) activity of purified trypsin, chromogenic substrate, OD 405 nm; type: biochemical; details: enzyme 10 nM, 37° C., 15 min (FIG. 7)
thrombin = biological target: T5, thrombin (Homo sapiens, UniProt P00734); assay: Peptidase (amidolytic) activity of purified thrombin, chromogenic substrate, OD 405 nm; type: biochemical; details: for Cleavage of the substrate by thrombin, in words: enzyme 10 nM, 37° C., 15 min (FIG. 7)
T5 construct: purchased Calbiochem-Novabiochem Corp (La Jolla, Calif.)

trypsin [5] = assay: Peptidase (amidolytic) activity of purified trypsin, chromogenic substrate, OD 405 nm; type: biochemical; details: Table 2; trypsin 16 nM, substrate AGLTR-pNA; 60 min at 4° C. with LBTI 1 mg/ml, SBTI I mg/ml, aprotinin 0.075 mg/ml, benzamidine 50 mM or Futhan 0.1 mg/ml
Experimental: as §1
(§4) The enzymes C1s (100 nM), plasm in (100 nM), thrombin (100 nM), plasma kallikrein (20 nM), β-FXIIa (100 nM), trypsin (16 nM) or LTR EDTA plasma samples were incubated for 60 min at 4° C. with TBS-EDTA buffer containing either LBTI (1 mg/ml), SBTI (I mg/ml), aprotinin (0.075 mg/ml), benzamidine (50 mM), or Futhan (0.1 mg/ml), before mixing with the substrate. EDTA plasma samples from LTR were diluted 10 or 20-fold with TBS-EDTA. The chromogenic substrate AGLTR-pNA was used for all enzymes and LTR samples except C1s where the substrate S2288 was used. Based on the initial rate of increase in OD at 405 nm, the residual free enzyme level was calculated and expressed as a percentage of total activity without inhibitor added.

[6] = tested on: all of the enzymes examined; assay: General serine proteinase inhibitors on selected proteinases (summary over the enzymes); type: biochemical; details: Table 2; benzamidine 50 mM, Futhan 0.1 mg/ml
Experimental: as §1, §4

[7] = tested on: proteinase(s) in EDTA plasma from LTR (kallikrein-like peptidase); assay: Peptidase activity in EDTA plasma from liver transplant recipients (LTR), chromogenic substrate, OD 405 nm; type: biochemical, human; details: Table 2, substrate AGLTR-pNA, 60 min at 4° C. with LBTI 1 mg/ml, SBTI I mg/ml, aprotinin 0.075 mg/ml, benzamidine 50 mM or Futhan 0.1 mg/ml
Experimental: Blood samples were drawn into 5 ml EDTA tubes (Venoject; Terumo Corp., Elkton, Md.). The plasma was collected immediately by centrifugation at 2,000×g for 15 min at 4° C. The plasma samples were either processed immediately for analysis or stored at −70° C. Frozen samples were thawed at 4° C. prior to analysis.
as §1, §4
(§5) Ten-fold diluted normal EDTA plasma was added to each enzyme. The enzymes C1s (100 nM), plasmin (100 nM), thrombin (100 nM), plasma kallikrein (20 nM), β-FXIIa (100 nM), trypsin (16 nM) or LTR EDTA plasma samples were incubated for 60 min at 4° C. with TBS-EDTA buffer containing either C1INH (40 μg/ml), bdellin (50 μg/ml), hirudin (50 U/ml), PPACK 11(10 μM), or CTI (100 μg/ml), before adding the substrate. LTR samples were 10 or 20-fold diluted with TBS-EDTA. The chromogenic substrate AGLTR-pNA was used for all enzymes and LTP samples except C1s where the substrate S2288 was used. Based on the initial rate of increase in OD at 405 nm, the residual free enzyme was calculated and expressed as a percentage of total activity determined without inhibitor added.

C1s [8] = biological target: T1, C1s; assay: Peptidase (amidolytic) activity of purified C1s, chromogenic substrate, 96-well plate, OD 405 nm; type: biochemical; details: Table 2; C1s 100 nM, substrate S2288; 60 min at 4° C. with LBTI 1 mg/ml, SBTI I mg/ml, aprotinin 0.075 mg/ml, benzamidine 50 mM or Futhan 0.1 mg/ml; % of total activity without inhibitor
Experimental: as §1, §4, §5

plasmin [9] = biological target: T2, plasmin; assay: Peptidase (amidolytic) activity of purified plasmin, chromogenic substrate, OD 405 nm; type: biochemical; details: Table 2; plasmin 100 nM, substrate AGLTR-pNA; 60 min at 4° C. with LBTI 1 mg/ml, SBTI I mg/ml, aprotinin 0.075 mg/ml, benzamidine 50 mM or Futhan 0.1 mg/ml
Experimental: as §1, §4, §5

Row | Cleavage of the substrate by C1s, in words (C1s [1]) | Cleavage of the substrate by plasmin, in words (plasmin [2]) | Cleavage of the substrate by β-FXIIa, in words (β-Factor XIIa (β-FXIIa)) | Cleavage of the substrate by plasma kallikrein, in words (plasma kallikrein) | Cleavage of the substrate by tissue kallikrein, in words (tissue kallikrein) | % Residual activity, β-FXIIa (β-Factor XIIa (β-FXIIa); Table 2, β-FXIIa 100 nM, substrate AGLTR-pNA, 60 min at 4° C. with LBTI 1 mg/ml, SBTI I mg/ml, aprotinin 0.075 mg/ml, benzamidine 50 mM or Futhan 0.1 mg/ml) | % Residual activity, Trypsin (trypsin [5]) | % Residual activity, Plasma Kallikrein (plasma kallikrein; Table 2, plasma kallikrein 20 nM, substrate AGLTR-pNA, 60 min at 4° C. with LBTI 1 mg/ml, SBTI I mg/ml, aprotinin 0.075 mg/ml, benzamidine 50 mM or Futhan 0.1 mg/ml) | % Residual activity, LTR 1 ([7]; LTR 1 EDTA plasma diluted 10 or 20-fold) | % Residual activity, LTR 2 ([7]; LTR 2 EDTA plasma diluted 10 or 20-fold) | % Residual activity, LTR 3 ([7]; LTR 3 EDTA plasma diluted 10 or 20-fold) | % Residual activity, C1s (C1s [8]) | % Residual activity, Thrombin (thrombin; Table 2, thrombin 100 nM, substrate AGLTR-pNA, 60 min at 4° C. with LBTI 1 mg/ml, SBTI I mg/ml, aprotinin 0.075 mg/ml, benzamidine 50 mM or Futhan 0.1 mg/ml) | % Residual activity, Plasmin (plasmin [9]) | Compound | Rate of conversion of the substrate by gel filtered LTR plasma, relative to AGLTR-pNA, in words [3] | Cleavage of the substrate by trypsin, in words (trypsin [4]) | Cleavage of the substrate by thrombin, in words (thrombin) | Inhibition of all of the enzymes examined, in words [6]
1 | least active on these substrates | least active on these substrates | least active on these substrates | cleaved S2302 more rapidly than S2288 | least active on these substrates |  |  |  |  |  |  |  |  |  | [dI]-Pro-Arg-pNA [S2288] | somewhat greater than that using AGLTR-pNA | cleaved substrate S2288 more efficiently than S2302 | cleaved substrate S2288 more efficiently than S2302; also recorded: preferred S2288 over either AGLTR-pNA or S2302 | 
2 | least active on these substrates | least active on these substrates | least active on these substrates | cleaved S2302 more rapidly than S2288 | least active on these substrates |  |  |  |  |  |  |  |  |  | [dP]-Phe-Arg-pNA [S2302] | somewhat greater than that using AGLTR-pNA | cleaved substrate S2288 more efficiently than S2302 | cleaved substrate S2288 more efficiently than S2302 | 
3 |  |  |  |  |  | 10.9% | 5.8% | 2.0% | 0.5% | −0.3% | 1.5% | 6.6% | 1.6% | 3.9% | N=C(N)c1ccccc1 [Benzamidine, benzamidine] |  |  |  | very efficient inhibitors for all of the enzymes examined

Row | Compound | Cleavage of the substrate by C1s, in words (C1s [1]) | Cleavage of the substrate by plasmin, in words (plasmin [2]) | Cleavage of the substrate by β-FXIIa, in words (β-Factor XIIa (β-FXIIa)) | Cleavage of the substrate by plasma kallikrein, in words (plasma kallikrein) | Cleavage of the substrate by tissue kallikrein, in words (tissue kallikrein) | % Residual activity, β-FXIIa (β-Factor XIIa (β-FXIIa); Table 2, β-FXIIa 100 nM, substrate AGLTR-pNA, 60 min at 4° C. with LBTI 1 mg/ml, SBTI I mg/ml, aprotinin 0.075 mg/ml, benzamidine 50 mM or Futhan 0.1 mg/ml) | % Residual activity, Trypsin (trypsin [5]) | % Residual activity, Plasma Kallikrein (plasma kallikrein; Table 2, plasma kallikrein 20 nM, substrate AGLTR-pNA, 60 min at 4° C. with LBTI 1 mg/ml, SBTI I mg/ml, aprotinin 0.075 mg/ml, benzamidine 50 mM or Futhan 0.1 mg/ml) | % Residual activity, LTR 1 ([7]; LTR 1 EDTA plasma diluted 10 or 20-fold) | % Residual activity, LTR 2 ([7]; LTR 2 EDTA plasma diluted 10 or 20-fold) | % Residual activity, LTR 3 ([7]; LTR 3 EDTA plasma diluted 10 or 20-fold) | % Residual activity, C1s (C1s [8]) | % Residual activity, Thrombin (thrombin; Table 2, thrombin 100 nM, substrate AGLTR-pNA, 60 min at 4° C. with LBTI 1 mg/ml, SBTI I mg/ml, aprotinin 0.075 mg/ml, benzamidine 50 mM or Futhan 0.1 mg/ml) | % Residual activity, Plasmin (plasmin [9]) | Rate of conversion of the substrate by gel filtered LTR plasma, relative to AGLTR-pNA, in words [3] | Cleavage of the substrate by trypsin, in words (trypsin [4]) | Cleavage of the substrate by thrombin, in words (thrombin) | Inhibition of all of the enzymes examined, in words [6]
4 | Ac-Ala-Gly-Leu-Thr-Arg-p-nitroanilide (Ac-AGLTR-pNA; SMILES CC(=O)N[C@@H](C)C(=O)NCC(=O)N[C@@H](CC(C)C)C(=O)N[C@H](C(=O)N[C@@H](CCCNC(=N)N)C(=O)Nc1ccc([N+](=O)[O-])cc1)[C@@H](C)O) | almost no ability to cleave this substrate; also recorded: neither C1s nor any of the other proteinases efficiently cleaved this substrate | poorly cleaved | almost no ability to cleave this substrate | cleaved AGLTR-pNA relatively efficiently | almost no ability to cleave this substrate |  |  |  |  |  |  |  |  |  |  | cleaved AGLTR-pNA relatively efficiently | poorly cleaved | 
